Measurements: patent US8450357B2, “Compositions comprising an aryl pyrazole and/or a formamidine, methods and uses thereof” (Merial Limited, priority 2008, dated 2013)
Read-outs that look alike come from different tables or passages of the source.

System: adult brown dog ticks (Rhipicephalus sanguineus)
Test: Tick DMSO contact assay, Compound 1 with reduced dosages of amitraz, Example 16
Type: in vivo
Experimental: Scintillation vials were treated with commercial and experimental compounds using the same procedure described in Example 12 above. The treated vials were used to determine the contact toxicity of compounds against adult brown dog ticks (Rhipicephalus sanguineus). The ticks were supplied by Ecto Services Inc. Henderson, N.C.
Unfed adult ticks were released into a metal pan and 10 living ticks were aspirated into each vial. […] Two replicates were tested for each treatment and the results were averaged. Ticks were stimulated by gently exhaling in the vials. Within the same time period, the addition of amitraz to an equal dosage of compound 1 increased mean mortality.

[1] = 4 h, read-out: 4 hour % Mortality Rep 1
[2] = 4 h, read-out: 4 hour % Mortality Rep 2
[3] = 4 h, read-out: 4 hour Avg. % Mortality
[4] = 24 h, read-out: 24 hour % Mortality Rep 1
[5] = 24 h, read-out: 24 hour % Mortality Rep 2
[6] = 24 h, read-out: 24 hour Avg. % Mortality
[7] = 48 h, read-out: 48 hour % Mortality Rep 1
[8] = 48 h, read-out: 48 hour % Mortality Rep 2
[9] = 48 h, read-out: 48 hour Avg. % Mortality

Cc1ccc(/N=C/N(C)/C=N/c2ccc(C)cc2C)c(C)c1 [Amitraz, amitraz]
0%: mortality at 3.13 ppm [1] | mortality at 6.25 ppm [1] | mortality at 12.5 ppm [1] | mortality at 3.13 ppm [2] | mortality at 6.25 ppm [2] | mortality at 12.5 ppm [2] | mortality at 3.13 ppm [3] | mortality at 6.25 ppm [3] | mortality at 12.5 ppm [3] | mortality at 3.13 ppm [4] | mortality at 6.25 ppm [4] | mortality at 12.5 ppm [4] | mortality at 3.13 ppm [5] | mortality at 6.25 ppm [5] | mortality at 12.5 ppm [5] | mortality at 3.13 ppm [6] | mortality at 6.25 ppm [6] | mortality at 12.5 ppm [6] | mortality at 3.13 ppm [7] | mortality at 6.25 ppm [7] | mortality at 12.5 ppm [7] | mortality at 3.13 ppm [8] | mortality at 6.25 ppm [8] | mortality at 12.5 ppm [8] | mortality at 3.13 ppm [9] | mortality at 6.25 ppm [9] | mortality at 12.5 ppm [9]
